Experimental data from paper PMC8691200 (Journal of Chemical Information and Modeling, 2021).
Entries after “also recorded” stand apart in the source; their conditions may differ.

Legend:
SARS-CoV-2 [1] = details: Vero E6 cells; cited from earlier work
SARS-CoV-2 [2] = details: Vero E6 cells, real-time polymerase chain reaction; cited from earlier work
[3] = tested on: SARS-CoV-2 MEX-BC2/2020 strain; assay type: cell-based

Compound: COc1ccc2cc1Oc1ccc(cc1)C[C@H]1c3c(cc4c(c3Oc3cc5c(cc3OC)CCN(C)[C@@H]5C2)OCO4)CCN1C [Cepharanthine]
- CPE (% efficacy) (SARS-CoV-2 [1]): 92%

Compound: CCOC(=O)c1c(CSc2ccccc2)n(C)c2cc(Br)c(O)c(CN(C)C)c12 [Compound 1, Arbidol]
- cytotoxicity in viability assays (Vero E6 cells): dose-dependent trend of cytotoxicity
- safety ratio (Vero E6 cells; African green monkey): 2.3
- compound precipitation or recrystallization in micrographs (25 μM, 96 h incubation with infected cells): no observed compound precipitation or recrystallization
- aqueous solubility (solubilized in DMSO or buffer (for salts)): good aqueous solubility
- maximum inhibition of virus entry (SARS-CoV-2 [2]): 70%

Compound: N#C[C@@]1(c2ccc3c(N)ncnn23)O[C@H](CO)[C@@H](O)[C@H]1O [GS-441524]
- maximum % inhibition observed [3]: 100%
- prevention of virus-induced CPE [3]: prevented completely the virus-induced CPE; also recorded: completely prevented the virus-induced CPE

Compound: C=C[C@@]1(C)CC(=O)[C@]2(O)[C@@]3(C)[C@@H](O)CCC(C)(C)[C@@H]3[C@H](OC(=O)CCN(C)C)[C@H](OC(C)=O)[C@@]2(C)O1.Cl [NKH477]
- CPE (% efficacy) (SARS-CoV-2 [1]): 45%

Compound: CC1=C[C@]23C(=O)[C@@H](C=C(CO)[C@@H](O)[C@]2(O)[C@H]1O)[C@H]1[C@@H](C[C@H]3C)C1(C)C [ingenol]
- CPE (% efficacy) (SARS-CoV-2 [1]): 38.2%

Compound: CC(CN(C)C)CN1c2ccccc2CCc2ccccc21 (centres unmarked) [trimipramine]
- CPE (% efficacy) (SARS-CoV-2 [1]): 48%
